Results published in US20200375996A1, “METHOD OF TREATING NEURODEGENERATIVE DISORDERS BY RESCUING ALPHA-SYNUCLEIN TOXICITY” (D.E. Shaw Research, LLC, priority 2015, published 2020).

Experiments:
[1] = test system: α-synuclein-expressing yeast; assay: α-synuclein toxicity rescue in yeast (growth, OD600); format: cell-based; settings: for rescue of aSyn toxicity in yeast (in words): FIGS. 8A-8B
Method: Yeast Strains and culturing: Yeast strains expressing alpha-synuclein have been described in Cooper at. al, 2006. (Cooper A A, et al. Alpha-synuclein blocks ER-Golgi traffic and Rab1 rescues neuron loss in Parkinson's models. Science. 2006 Jul. 21; 313:324) Strains express multiple copies of alpha-synculein for galactose-inducible expression. […] Yeast were cultured in complete synthetic media (CSM) and an appropriate dropout (lacking histidine or uracil) to maintain plasmids if required. For galactose-induction experiments, overnight cultures were grown in CSM/2% glucose to saturation and diluted 1:20 into CSM/2% raffinose for ˜2 generations. Cultures were then diluted into CSM/2% galactose at an optimum OD600 for the experiment (see ‘Growth assays’).
Yeast Growth assays: Starting cultures for all dose-response assays were based on strains initially constructed in the lab to maintain homogeneity across experiments. All growth assays were carried out in 384 well format. Source plates were assembled in 96 well plates using multichannel pipettes to dilute rows in 1.6-fold serial dilutions of CSMGal. To these dilution series containing 2× final concentration of compound, 2×OD600 culture (in CSMGal) was dispensed with a multichannel pipette to achieve a final drug/culture mix with the desired OD600 and drug concentration. For WT yeast, the final starting OD600 was 0.01. For α-syn, the final starting OD600 was 0.02. Drug concentration ranges varied depending on efficacy, growth inhibition, and solubility in media. A Tecan EvoFreedom liquid handling robot was then used to transfer culture from 96 to 384 well format with each well being represented four times. Final well volume was 35 μL. Plates were then incubated in humidified containers at 30° C. for either 24 or 40 hours. Plates were then read with a Tecan Saphire plate reader at OD600.
Raw OD600 values were transformed to “Relative Growth” in WT cells or “% Maximum Rescue” in α-syn experiments. In WT cells, the well background was subtracted and all values were then normalized to 100% for the untreated condition. In α-syn rescue experiments, the well background was subtracted and the maximum rescue in the particular experiment was normalized to 100%.

Carboxypeptidase Y (CPY) = assay: Western blot of Carboxypeptidase Y (CPY) trafficking; format: cell-based, yeast
Method: (§1) Protein analysis was performed in NoTox and HiTox strains with the compound treatment at indicated concentrations. Log phase CSM/2% raffinose cultures were induced with 2% galactose for 5 hours with DMSO or the compounds. Cultures were normalized to cell density and cell pellets prepared for SDS-PAGE. Cell pellets were boiled in SDS-loading dye for 15′, centrifuged, and resolved by 4-12% SDS-PAGE. CPY western blots were performed using culture conditions as described above. An anti-Cpy antibody (Invitrogen, A6428) was used at 1:5,000. Post-ER:ER ratios were quantitated using an IRDye800 secondary antibody (Li-Cor Odyssey, Rockland Immunochemicals) and scanned with the Li-Cor Odyssey imaging system. Significance was determined using a one-way ANOVA and Tukey's test of significance. From the same gel, total protein was detected by coomassie staining. Both blots and coomassie-stained gels were scanned using the Li-Cor Odyssey imaging system and quantitated. Significance was determined using a one-way ANOVA with Tukey's test of significance.

[2] = test system: K63 linkages in iPS derived human neurons; assay: K63-Ub linkages in human iPS derived neuronal cultures (immunoblot); format: cell-based
Method: Human HEK-293 or neuronal cells treated with the appropriate compounds, were washed twice with ice cold PBS and then 0.5 ml of Lysis buffer was added and cells were scraped off the 10 cm dish (1 ml for 15 cm).
Lysis buffer is 50 mM Tris/HCl pH 7.5, 1 mM EGTA, 1 mM EDTA, 0.5 or 1% (v/v) NP-40, 1 mM sodium orthovanadate, 50 mM NaF, 5 mM sodium pyrophosphate, 0.27 M sucrose, 10 mM sodium 2-glycerophosphate, 0.2 mM phenylmethylsulphonyl fluoride, 1 mM benzamidine, plus 100 mM iodoacetamide added fresh prior to lysis (weight powder, don't use a frozen stock solution) to inactivate deubiquitylase activities and add also pepstatin/aprotinin to inhibit proteases. Cell extracts were sonicated twice for 15 seconds each time and clarified by centrifugation at 14000 g for 15 min at 4° C. Supernatants were collected and filtered using a 0.45 uM MiniSart/Syringe. Next, protein concentrations were determined by Bradford procedure.
The avidity based K63 linkage sensor protein was based on Sims et. al, 2012. Briefly, avidity based K63 sensor Halo-fusion protein was expressed in an E. coli expression vector and covalently bound to Halo-tag beads [Magne® HaloTag® Beads, 20% Slurry; Cat #G7281]. […] After incubation, the beads were washed three times with 1 ml of Lysis buffer containing 500 mM NaCl and once with 0.5 ml of 10 mM Tris/HCl pH 8.0. […] The eluate is heated at 75° C. for 5 min and analysed by immuno-blotting using an anti-K63 linkage specific antibody (http://www.abcam.com/ubiquitin-linkage-specific-k63-epr8590-448-antibody-ab179434.html).
Pure neuronal cultures derived from human iPS cells were treated with DMSO, DES-2877, DES-4114 and #32 at 5 μM for 12 hours. […] Ubiquitylation site identification by mass spectrometry was performed as described Kim et al., (Systematic and quantitative assessment of the ubiquitin-modified proteome. Mol Cell. 2011; 44:325-340). and Sarraf et al., (Landscape of the PARKIN-dependent ubiquitylome in response to mitochondrial depolarization. Nature. 2013; 496:372-376).

Sna3-GFP [3] = assay: Sna3-GFP trafficking to the vacuole (Western blot, GFP cleavage); format: cell-based, yeast; settings: for ratio of Sna3-GFP to free GFP: 10 μM, FIGS. 16A-16F, within the compound series; for Sna3-GFP trafficking to the vacuole (in words): galactose 5 hours, FIGS. 15B-15F
Method: Log phase CsmRaf cultures of WT tagged Sna3-GFP cells were shifted to galactose for 5 hours in the presence or absence of the compounds. Cell pellets were lysed in SDS-loading dye and Sna3-GFP cleavage monitored by Western blotting with an anti-GFP antibody. Log phase CsmRaf cultures of WT or α-syn yeast were shifted to galactose for 5 hours in the presence or absence of the compounds at which point they were then prepared for Western blot analysis. FIGS. 15B-15F show Western blot analyses of Sna3-GFP for various compounds.
Ratio of the intact Sna3-GFP to cleaved GFP was calculated for each of the conditions as a readout for efficiency of trafficking of the Sna3-GFP molecule to the vacuole. Polyubiquitination of Sna3-GFP was used as a readout for the intermediate step at the multivesicular body. Image Studio software was used to determine the intensities of the bands, based on linear interpolation of the mean signal intensities from each of the areas of interest and ratios were subsequently calculated in Microsoft Excel and plotted according to the compound series as shown in FIGS. 16A-16F. In the ‘32’ series of analogs, the ratio of Sna3-GFP to free GFP varied among the analogs, with DES-2179 having the lowest ratio of Sna3-GFP to free GFP and DES-2866 having the highest ratio (FIG. 16A). In the ‘91’ series of analogs, the ratio of Sna3-GFP to free GFP varied among the analogs, but less so than for the ‘32’ series (FIG. 16B). In the ‘4117’ series of analogs, the ratio of Sna3-GFP to free GFP was lowest for DES-5212 (FIG. 16C). […] In the ‘28’ series of analogs, DES-2817 had the lowest ratio of Sna3-GFP to free GFP (FIG. 16F). The other compounds in the ‘28’ series had ratios between ˜0.5 and 1.0 (FIG. 16F). In the ‘37’ series of analogs, the ratio of Sna3-GFP to free GFP was greatest for DES-2926 (FIG. 16F).

Rsp5 = molecular target: T1, Rsp5 (Saccharomyces cerevisiae, UniProt P39940); assay: Back-Scattering Interferometry (BSI) binding to recombinant Rsp5; settings: for Kd: 100 nM Rsp5, one-site saturation binding model, read-out: dissociation constant (Kd) for binding to Rsp5
T1 sequence (P39940 431-809 limits assumed): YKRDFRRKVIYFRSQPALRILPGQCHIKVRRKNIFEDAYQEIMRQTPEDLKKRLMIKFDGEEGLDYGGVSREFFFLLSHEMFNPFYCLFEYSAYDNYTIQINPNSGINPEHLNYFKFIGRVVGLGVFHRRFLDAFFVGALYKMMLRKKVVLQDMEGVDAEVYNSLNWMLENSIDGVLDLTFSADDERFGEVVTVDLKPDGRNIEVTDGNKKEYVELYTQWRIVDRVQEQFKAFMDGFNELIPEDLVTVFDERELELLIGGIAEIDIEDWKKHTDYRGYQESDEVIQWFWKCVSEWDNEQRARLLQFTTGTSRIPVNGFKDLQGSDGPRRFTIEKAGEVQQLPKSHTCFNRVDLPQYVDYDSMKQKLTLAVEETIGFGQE
Method: Sample Preparation of Rsp5 Target: Rsp5 was supplied in 15 μL aliquots of 100 μM (25 mM HEPES pH 7.5, 200 mM NaCl, 5 mM DTT) by St. Jude Research Hospital (Memphis, Tenn.) and was stored at −80° C. Immediately prior to assays fresh aliquots were thawed and diluted in 25 mM HEPES, pH 7.5, 200 mM NaCl, 1 mM DTT, 0.005% pluronic acid and 1% DMSO. The final Rsp5 concentration in the binding assay was 100 nM.
Sample Preparation of compounds (ligands): The compounds were received as solids and reconstituted to either 40 or 20 mM in 100% DMSO and stored at −80° C. in single use aliquots. The final concentration of each ligand in an assay was 50 μM with a 2× serial dilution to create a 12-point curve.
The assay buffer was 25 mM HEPES, pH 7.5, 200 mM NaCl, 1 mM DTT, 0.005% pluronic acid, 1% DMSO. The assay was run in Eppendorf 96-well PCR microplates. 55 μL of either Rsp5 or buffer (as control) were added to a each well. To these wells were added 55 μL of the compound dilution. A reference channel containing only buffer was setup as well for thermal compensation during assay measurements. The plates were heat sealed with foil and the assay plates were allowed to incubate at room temperature for 2 hours. Wells were pierced individually prior to sample injection and measurement of BSI signal (each well analyzed in duplicate). The assays were run using a glass microfluidic chip with a proprietary surface treatment on TruBind™ 100 system.
The BSI signal was expressed as the magnitude of the spatial shift of the fringe pattern on a CMOS camera, measured in milliradians. The control signal was subtracted from assay signal for each compound dilution point. The resulting values were re-zeroed and analyzed with the GraphPad Prism program. The dissociation constant (Kd) was derived from non-linear least-squares fitting of the data using the one-site saturation binding model. The goodness of fit was judged by the calculated R^2 value. The difference and control curves for at least two successful assays were averaged. The resulting average difference curve was used to calculate the reported Kd value for each compound.

Sna3-GFP [4] = assay: Immunoblot analysis of Sna3-GFP polyubiquitination in WT and α-syn cells; format: cell-based, yeast; settings: FIG. 11B
Method: as §1
In WT Sna3-GFP cells, log phase CSMRaf cultures were shifted to galactose for 5 hours in the presence or absence of the compounds. Cell pellets were lysed in SDS-loading dye and Sna3-GFP cleavage monitored by Western blotting with an anti-GFP antibody. […]

[5] = test system: aSyn-expressing yeast cells; assay: Morphological analysis of aSyn-expressing yeast cells; format: cell-based; settings: 10 uM, galactose induction five hours, FIG. 10
Method: Raffinose cultures of α-syn expressing yeast cells were grown up to the logarithmic phase in raffinose. Cultures were induced with galactose for five hours in the presence or absence of the indication concentration of the compounds. In the present example, the identified compounds were present at a concentration of 10 uM. Cells were centrifuged, media discarded, and then fixed with 4% paraformaldehyde in 1×PBS for 1 hr. The fixed culture was centrifuged, and the pellet resuspended in 0.4% paraformaldehyde in 1×PBS and kept at 4° C.

**Q.** How did the “concentration at which efficacy of rescue peaks” value ([1]; dose-response, FIG. 1B, above the peak growth slows) turn out when `COc1cc(/C=N/Nc2nc(Nc3cccc(C(F)(F)F)c3)nc(N3CCOCC3)n2)ccc1O` [DES-2179] was run?
**A.** around 10 μM

**Q.** And the “Cpy trafficking defect (block in vesicle trafficking)” value (Carboxypeptidase Y (CPY); FIG. 1C)?
**A.** ameliorate this defect

**Q.** What about the “K63-linked ubiquitination of proteins” value ([2]; Nedd4-dependent manner, FIGS. 3A-3C) of the same molecule?
**A.** promote K63-linked ubiquitination of proteins

**Q.** What about the “ratio of Sna3-GFP to free GFP” value (Sna3-GFP [3]) of the same molecule?
**A.** lowest ratio

**Q.** What about the “Sna3-GFP trafficking to the vacuole (in words)” value (“Sna3-GFP trafficking” below) (Sna3-GFP [3]) of the same molecule?
**A.** promotes Sna3-GFP trafficking to the vacuole

**Q.** For `O=C(c1ccc(COc2ccc(OC(F)(F)F)cc2)o1)N1CCN(c2ccccc2)CC1` [DES-2184], which “rescue of aSyn toxicity in yeast (in words)” value (shortened to “rescue of aSyn toxicity”) [1] is on record?
**A.** also effective

**Q.** With `CCCCc1ccc2nc(-c3ccc(-c4cc(Cl)cc(Cl)c4)o3)cc(C(=O)O)c2c1` [DES-2817] as the molecule, how does the “ratio of Sna3-GFP to free GFP” value (Sna3-GFP [3]) read?
**A.** lowest ratio

**Q.** And the “Sna3-GFP trafficking” value (Sna3-GFP [3])?
**A.** promote Sna3-GFP trafficking to the vacuole

**Q.** With `O=C(c1ccc(COc2ccc(OC(F)(F)F)cc2)o1)N1CCC(O)(c2ccc(Cl)cc2)CC1` [DES-2854] as the molecule, how does the “Sna3-GFP trafficking” value (Sna3-GFP [3]) read?
**A.** promote Sna3-GFP trafficking to the vacuole

**Q.** Which “rescue of aSyn toxicity” value [1] does the source give for `COc1cc(Cl)cc(/C=N/Nc2nc(Nc3ccc(C)c(Cl)c3)nc(N3CCOCC3)n2)c1O` [DES-2866] here?
**A.** also effective

**Q.** What about the “ratio of Sna3-GFP to free GFP” value (Sna3-GFP [3]) of the same molecule?
**A.** highest ratio

**Q.** With `COc1cc(Cl)cc(/C=N/Nc2nc(Nc3cc(C)ccc3C)nc(N3CCOCC3)n2)c1O` [DES-2877] as the molecule, how does the Kd (Rsp5) read?
**A.** 1700 ± 400 nM

**Q.** And the “rescue of aSyn toxicity” value [1]?
**A.** most effective

**Q.** What about the “polyubiquitinated Sna3-GFP” value (Sna3-GFP [4]) of the same molecule?
**A.** increase

**Q.** What about the “accumulation of CPY trafficking intermediates en route to the vacuole” value (Carboxypeptidase Y (CPY); FIG. 11D) of the same molecule?
**A.** increase

**Q.** What about the “morphology: vesicular intermediates in yeast cells” value [5] of the same molecule?
**A.** accumulation of vesicular intermediates

**Q.** And the “K63 linkages in iPS derived human neurons” value ([2]; 5 μM for 12 hours, FIG. 13A)?
**A.** modest increase

**Q.** With `O=C(c1ccc(COc2ccc3ccccc3c2)o1)N1CCN(c2ncccn2)CC1` [DES-2926] as the molecule, how does the “ratio of Sna3-GFP to free GFP” value (Sna3-GFP [3]) read?
**A.** greatest

**Q.** How did the “Sna3-GFP trafficking” value (Sna3-GFP [3]) turn out when `Cc1ccc(C2CC(C(F)(F)F)n3nc(C(=O)N4CCN(c5ccccc5)CC4)cc3N2)cc1` (stereo not drawn) [DES-2960] was run?
**A.** promotes Sna3-GFP trafficking to the vacuole better than DES-2866 and DES-2928

**Q.** What does the source list for `COc1cc(/C=N/Nc2nc(Nc3ccccc3)nc(N3CCOCC3)n2)ccc1OCC#N` [DES-3001]?
**A.** binding to Rsp5 (in words) (Rsp5): did not show binding; Sna3-GFP trafficking to the vacuole (in words) (Sna3-GFP [3]): promote Sna3-GFP trafficking to the vacuole

**Q.** Which “Sna3-GFP trafficking” value (Sna3-GFP [3]) does the source give for `O=C(Nc1cccc(Cl)c1)c1coc(CN2CCN(c3ccc(F)cc3)CC2)n1` [DES-3035] here?
**A.** promote Sna3-GFP trafficking to the vacuole

**Q.** With `C(=N\Nc1nc(Nc2ccccc2)nc(N2CCOCC2)n1)/c1ccncc1` [DES-4117] as the molecule, how does the “binding to Rsp5 (in words)” value (Rsp5) read?
**A.** did not show binding

**Q.** How did the “Sna3-GFP trafficking” value (Sna3-GFP [3]) turn out when `Cc1ccc(C)c(Nc2nc(N/N=C/c3ccncc3)nc(N3CCOCC3)n2)c1` [DES-5204] was run?
**A.** promote Sna3-GFP trafficking to the vacuole

**Q.** What does the source list for `C(=N\Nc1cc(N2CCOCC2)nc(Nc2ccccc2)n1)/c1ccncc1` [DES-5212]?
**A.** Kd (Rsp5): 680 ± 180 nM; ratio of Sna3-GFP to free GFP (Sna3-GFP [3]): lowest; Sna3-GFP trafficking to the vacuole (in words) (Sna3-GFP [3]): promote Sna3-GFP trafficking to the vacuole
